Consider five molecules from ChEMBL document CHEMBL1131705, “A highly stereoselective synthesis of plaunotol and its thiourea derivatives as potent antibacterial agents against Helicobacter pylori” (1999).

What all share (type): functional
Assay [1] deals with Helicobacter pylori. In words: In vitro antibacterial activity against Helicobacter pylori (NCTC 11637).
Assay [2] deals with Helicobacter pylori. Kind of assay: In vitro antibacterial activity against Helicobacter pylori (CPY 2052).
Assay [3] relates to Helicobacter pylori. Kind of assay: In vitro antibacterial activity against Helicobacter pylori (No. 7).
In assay [4] the test system is Helicobacter pylori. In words: Antibacterial activity against Helicobacter pylori (NCTC 11637).
For assay [5], the system named is Helicobacter pylori. Kind of assay: Antibacterial activity against Helicobacter pylori (No. 7).
Assay [6] concerns Helicobacter pylori. In words: Antibacterial activity against Helicobacter pylori (CPY 2052).

For orientation: MIC means the lowest concentration found to suppress growth. High values mean a less susceptible organism, low ones a more susceptible organism.

In brackets after ≈: the same amount, converted by molar mass.

As to `CC1(C)S[C@@H]2[C@H](NC(=O)[C@H](N)c3ccc(O)cc3)C(=O)N2[C@H]1C(=O)O` [AMOXICILLIN], the MIC turned out to be 0.025 µg/mL (≈ 0.0684 µM) against Helicobacter pylori [1], 0.05 µg/mL (≈ 0.137 µM) against Helicobacter pylori [2] and 0.1 µg/mL (≈ 0.274 µM) against Helicobacter pylori [3].

Turning to `CC(C)=CCC/C(C)=C/CC/C(=C/CC/C(C)=C/C/N=C(\S)NCCc1ccccc1)C/N=C(\S)NCCc1ccccc1`, the minimal inhibitory concentration (MIC) was 6.25 µg/mL (≈ 9.9 µM) in the assay with Helicobacter pylori [1], 0.78 µg/mL (≈ 1.24 µM) in the assay on Helicobacter pylori [2] and 6.25 µg/mL (≈ 9.9 µM) against Helicobacter pylori [3].

As to `CC(C)=CCC/C(C)=C/CC/C(=C/CC/C(C)=C/C/N=C(\S)NCCc1ccccc1)CO`, the MIC in the assay with Helicobacter pylori [1], against Helicobacter pylori [2] and against Helicobacter pylori [3] was no more than 0.1 µg/mL throughout.

In the case of `CC(C)=CCC/C(C)=C/CC/C(=C/CC/C(C)=C/CO)CO` [PLAUNOTOL], the MIC in the assay with Helicobacter pylori [4] came out at 12.5 µg/mL (≈ 40.8 µM); in the assay with Helicobacter pylori [5] it was 6.25 µg/mL (≈ 20.4 µM); in the assay on Helicobacter pylori [6], 6.25 µg/mL (≈ 20.4 µM).

`CC(C)=CCC/C(C)=C/CCC(=CCCC(C)=CCO)C/N=C(\S)NCCc1ccccc1`: the minimal inhibitory concentration (MIC) with Helicobacter pylori [1] came out at 25 µg/mL (≈ 53.3 µM); against Helicobacter pylori [2], 1.56 µg/mL (≈ 3.33 µM); in the assay with Helicobacter pylori [3] it was 1.56 µg/mL (≈ 3.33 µM).
